From US20090293139A1, “DOUBLE-INDUCIBLE GENE ACTIVATION SYSTEM AND ITS APPLICATIONS” (The Texas A&M University System Agency State of Texas, priority 2008, published 2009)

How the values were obtained:
caspase-3 = experiment: Clonetech ApoAlert Caspase Assay, caspase-3 activity in transfected CVI cells; assay type: cell-based, monkey; conditions: CVI cells treated for 1.5 hrs
Procedure: (§1) A double-inducible gene activation system was evaluated in vitro using a cell culture model. Three plasmids were constructed: 1) chimeric transcription factor, Glp65 containing progesterone receptor ligand-binding domain (PR-LBDΔ) (FIG. 1); 2) pTATA-HA-iCasp3 (myristoylated) carrying CBD; and 3) pTATA-HA-iCasp9 carrying CBD (FIGS. 1 and 2). The chimeric transcription factor and one of the two caspase plasmids were transfected into CVI cells (monkey kidney fibroblasts).

iCasp9 = experiment: Western blot (anti-HA) of transfected cell lysates, iCasp9; assay type: cell-based, monkey; conditions: for expression of iCasp9 precursors: CVI cells transfected with Glp65 and pTATA-HA-iCasp9, drug alone, anti-HA Western blot
Procedure: as §1
(§2) One plasmid expressed a tissue-specific chimeric transcription factor (Glp65) that can be activated by RU486, which functioned as the first induction in our system. In this case, an epidermal-specific keratin 14 (K14) promoter was used to direct gene expression to the keratinocytes of the basal epidermis and hair follicles (KI4-Glp65, FIG. 1; Cao et al., 2002; Kucra et al., 1996). The second plasmid expressed the target transgene. The plasmid contained four copies of the 17-mer GAL4 binding site in the promoter region (FIG. 1). Full length of caspase-3 cDNA with CID binding domain and HA-tag fragment was cloned by polymerase chain reation (PCR) from an expression vector pSH1/M-Fv2-Yama-E (Fan et al., 1999) and was then subcloned into p17×4 TATA-H2 kd vector (Bo et al., 2005) by ClaI and BamH I to generate pTATA-HA-iCasp3 […].
(§3) Cell lysates were assessed by Western blot using an anti-HA antibody. […] With the subsequent application of CID, caspase 3 and caspase 9 were activated as evidenced by the disappearance of the caspase precursors due to the hemagglutinin (HA) tag carrying a caspase cleavage consensus site, DVPD (lanes 4 in FIGS. 3 and 4).

[1] = test system: adult mouse ear skins and newborn mouse back skins; experiment: Microscopic and histological analysis of skin (H&E); assay type: in vivo
Procedure: The skin apoptosis was evaluated by TUNEL assay (panels j-l).
Skin sections from K14-Glp65/iCasp9 newborn mice back skin were visualized by H&E stain (panels a-c), and were immunostained by keratin 14 antibody (panels d-f). […] The skin apoptosis was evaluated by TUNEL assay (panels j-l).
Apoptosis was evaluated by TUNEL staining.

[2] = test system: K14-Glp65/iCasp3 and K14-Glp65/iCasp9 bigenic mice; experiment: Skin phenotype of neonates after RU486 in utero and topical CID; assay type: in vivo, mouse; conditions: RU486 in utero; topical CID twice per day, after two days; compared to control littermates
Procedure: (§4) To closely monitor the phenotypic changes of the skin of bigenic mice after the activation of caspases through the double-inducible system, we tested system in neonates by delivering RU486 in utero. The RU486 was dissolved in sesame oil and delivered intraperitoneally for 5 days at a dosage of 100 μg/kg per day into pregnant female K14-Glp65/iCasp3 and K14-Glp65/iCasp9 bigenic mice at 14.5 days gestation. To counter the abortion side-effect of RU486, progesterone (Sigma, St. Louis, Mo.) at 0.5 mg/mouse per day was applied along with RU486. Transgenic pups were treated topically with CID on their dorsal anterior-posterior (AP) axes twice per day and monitored closely for phenotypic changes or visible signs of apoptosis. Control littermates were treated with only the diluent only without CID. […] On day four, skin biopsies were taken from the back skin of the pups and fixed in 4% paraformaldehyde.

iCasp3 precursors = experiment: Western blot (anti-HA) of transfected cell lysates, iCasp3; assay type: cell-based, monkey; conditions: for expression of iCasp3 precursors: CVI cells transfected with Glp65 and pTATA-HA-iCasp3, drug alone, anti-HA Western blot
Procedure: as §1, §2, §3

[3] = test system: adult mouse ear skins and newborn mouse back skins; experiment: TUNEL staining of skin (apoptosis); assay type: in vivo
Procedure: (§5) Induction of the two caspases was then further studied by immunohistochemical staining with an anti-HA antibody. […] Apoptosis was evaluated by TUNEL staining.

caspase-9 = experiment: Clonetech ApoAlert Caspase Assay, caspase-9 activity in transfected CVI cells; assay type: cell-based, monkey; conditions: CVI cells treated for 1.5 hrs
Procedure: as §1

[4] = test system: K14-Glp65/iCasp3 and K14-Glp65/iCasp9 bigenic mice; experiment: Skin phenotype of adult bigenic mice after RU486 pellet and intraperitoneal CID; assay type: in vivo, mouse
Procedure: A double-inducible gene activation system was tested in vivo in two bigenic mouse lines, K14-Glp65/iCasp3 and K14-Glp65/iCasp9. The bigenic mice were generated by breeding two individual mouse lines.
The breeding of the first and second transgenic mouse lines generated bigenic mice called K14-Glp65/iCasp3 and K14-Glp65/iCasp9, which harbored both RU486 and CID regulators as depicted in FIG. 1. With the application of RU486, the Glp65 fusion protein was exclusively expressed in skin keratinocytes, which subsequently initiated caspase precursor induction.
Bigenic mice between 8 and 15 weeks of age were subjected to RU486 treatment using a 21-day-release pellet that was surgically inserted beneath the skin in the region of the posterior scapula. The addition of RU486 activates the chimeric transcription factor and allows it to bind to the GAL4 DNA binding site of the caspase precursor target gene (either icasp3 or icasp9) and induces target gene expression. After seven days of RU486 treatment, CID was applied intraperitoneally to induce self-activation of caspase precursors. Placebo pellets lacking RU486 and CID-diluent were used for control groups.

caspase 3 = experiment: Western blot of mouse skin tissues, induced caspase 3; assay type: in vivo; conditions: transgenic mouse skin
Procedure: as §4

caspase precursors = experiment: Immunohistochemical staining of skin with anti-HA antibody; assay type: in vivo; conditions: adult mouse ear skins and newborn mouse back skins
Procedure: as §5

caspase 9 = experiment: Western blot of mouse skin tissues, induced caspase 9; assay type: in vivo; conditions: transgenic mouse skin
Procedure: as §4

[5] = subsequent application of CID after RU486, CVI cells

SMILES | increase in caspase-3 activity (caspase-3) | expression of iCasp9 precursors (iCasp9) | caspase 9 activation (disappearance of the caspase precursors) (iCasp9; [5]) | skin structure [1] | skin phenotype of pups [2] | expression of iCasp3 precursors (iCasp3 precursors) | caspase 3 activation (disappearance of the caspase precursors) (iCasp3 precursors; [5]) | TUNEL-positive nuclei (apoptosis) [3] | increase in caspase-9 activity (caspase-9) | skin phenotype of ears ([4]; adult bigenic mice, five days following intraperitoneal CID after seven days of RU486 pellet) | expression level of induced caspase 3 (caspase 3) | expression of caspase precursors (anti-HA staining) (caspase precursors) | skin phenotype of ears ([4]; adult bigenic mice that only received RU486 treatment) | expression level of induced caspase 9 (caspase 9)
CC[C@H](C(=O)N1CCCC[C@H]1C(=O)O[C@H](CCc1ccc(OC)c(OC)c1)c1cccc(OCC(=O)NCC(CNC(=O)COc2cccc([C@@H](CCc3ccc(OC)c(OC)c3)OC(=O)[C@@H]3CCCCN3C(=O)[C@@H](CC)c3cc(OC)c(OC)c(OC)c3)c2)CN(C)C)c1)c1cc(OC)c(OC)c(OC)c1 [CID] | not | No caspase precursors were induced | activated | normal skin structures | exhibited peeling and appeared dehydrated | No caspase precursors were induced | activated | no or basal level of apoptosis | not | reddening of the surface layers of the skin and thickness |  |  |  | 
CC#C[C@]1(O)CC[C@H]2[C@@H]3CCC4=CC(=O)CCC4=C3[C@@H](c3ccc(N(C)C)cc3)C[C@@]21C [RU486, mifepristone] | not | induced the expression |  | normal skin structures |  | induced the expression |  | no or basal level of apoptosis | not |  | strong expression | Strong expression | did not observe this phenotype | strong expression
